From patent publication US8633315B2, “Substituted hydroxyethyl amine compounds as beta-secretase modulators and methods of use” (Amgen Inc., priority 2007, dated 2014)
Read-outs that look alike come from different tables or passages of the source.

How the values were obtained:
BACE1 = BACE1 (Homo sapiens, UniProt P56817); experiment: In vitro enzymatic BACE FRET (fluorescence resonance energy transfer) assay; format: biochemical
Procedure, shortened: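 Fluorescence (ex 488 nm, […]) was read after Tris addition raised pH to neutral, ending a one-hour incubation. Reaction started with 50 nM fluorophore/quencher peptide substrate in pH 4.2 acetate (0.05 M) containing 100 uM genapol and 10% DMSO final.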

[1] = test system: Cells stably expressing Amyloid Precursor Protein (APP); experiment: In vitro BACE cell-based assay (HEK cell assay): Aβ40 in conditioned medium by sandwich ELISA; conditions: Homo sapiens
Procedure, shortened: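 Secreted Aβ40 was quantified by time-resolved fluorescence sandwich ELISA, capturing with pAb40 for 3 h at 4 °C and detecting with biotinylated 6E10 for 2 h at 4 °C. Media came from APP-expressing cells exposed 24 h to compounds (10-point series from 100 or 10 μM, 0.1% DMSO); IC50 derived from percent of control.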

Abeta peptide = experiment: In vivo inhibition of beta-secretase: Abeta peptide in CSF and brain after oral dosing; conditions: orally dosed at about 30 mg/kg; for inhibition in vivo at 30 mg/kg: Rattus norvegicus, po, CSF, read-out: reduction of Abeta peptide in the CSF of the rat
From the text: In Vivo Inhibition of Beta-Secretase
Several animal models, including mouse, rat, dog, and monkey, may be used to screen for inhibition of beta-secretase activity in vivo following administration of a test compound sample. Animals used in this invention can be wild type, transgenic, or gene knockout animals. For example, the Tg2576 mouse model, prepared and conducted as described in Hsiao et al., 1996, Science 274, 99-102, and other non-transgenic or gene knockout animals are useful to analyze in vivo inhibition of Amyloid beta peptide (Abeta) production in the presence of inhibitory test compounds. Generally, 2 to 18 month old Tg2576 mice, gene knockout mice or non-transgenic animals are administered test compounds formulated in vehicles, such as cyclodextran, phosphate buffers, hydroxypropyl methylcellulose or other suitable vehicles. […] A separate group of animals receive 2% hydroxypropyl methylcellulose, 1% Tween80 alone, containing no test compound, and serve as a vehicle-control group. At the end of the test period, animals are sacrificed and brain tissues, plasma or cerebrospinal fluid are collected. Brains are either homogenized in 10 volumes (w/v) of 0.2% diethylamine (DEA) in 50 mM NaCl (Best et al., 2005, Journal of Pharmacology and Experimental Therapeutics, 313, 902-908), or in 10 volumes of 0.5% TritonX-100 in Tris-buffered saline (pH at about 7.6). Homogenates are centrifuged at 355,000 g, 4° C. for 30 minutes. CSF or brain supernatants are then analyzed for the presence of Abeta peptide by specific sandwich ELISA assays based on ECL (Electrochemiluminescence) technology. For example, rat Abeta40 is measured using biotinylated-4G8 (Signet) as a capture antibody and Fab40 (an in-house antibody specific to the C-terminal of Abeta40) as a detection antibody. For example, 4 hours after administration of 30 mg/kg oral dose of the test compound in 2% hydroxypropyl methylcellulose, 1% Tween80 (pH2.2) to 200 g male Sprague Dawley rats, Abeta peptide levels are measured for reduction by X % and Y % in cerebrospinal fluid and brain, respectively, when compared to the levels measured in the vehicle-treated or control […].
Actual vehicles used: Oral: 2% HPMC, 1% Tween80, pH 2.2
• IV: 5% EtOH, 45% Propylene glycol in 5% Dextrose

CYP3A4 (CYP3A) = CYP3A4 (CYP3A) (Homo sapiens, UniProt P08684); experiment: CYP3A inhibition assay (midazolam, pooled human liver microsomes); format: in vitro ADME; conditions: human, pooled human liver microsomes, pH 7.4, probe midazolam (printed as about […]); read-out: 3A4 IC50
Sequence of CYP3A4 (CYP3A) (P08684 2-503): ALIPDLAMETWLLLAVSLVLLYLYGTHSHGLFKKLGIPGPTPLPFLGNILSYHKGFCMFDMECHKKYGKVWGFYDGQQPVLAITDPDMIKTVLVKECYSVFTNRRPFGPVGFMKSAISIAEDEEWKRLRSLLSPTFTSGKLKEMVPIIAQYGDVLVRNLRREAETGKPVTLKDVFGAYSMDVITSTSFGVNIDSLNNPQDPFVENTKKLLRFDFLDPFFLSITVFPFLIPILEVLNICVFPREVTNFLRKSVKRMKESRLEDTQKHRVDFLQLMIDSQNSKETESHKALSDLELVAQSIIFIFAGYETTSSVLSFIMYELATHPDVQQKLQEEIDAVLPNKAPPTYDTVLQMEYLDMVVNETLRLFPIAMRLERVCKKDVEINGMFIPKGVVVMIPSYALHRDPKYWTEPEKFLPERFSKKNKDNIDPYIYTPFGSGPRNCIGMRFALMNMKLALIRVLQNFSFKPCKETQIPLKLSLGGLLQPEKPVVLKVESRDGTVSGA

[2] = Microsomal stability assay, human liver microsomes; format: in vitro ADME
From the text: (§1) Microsomal Stability Assay

[3] = Microsomal stability assay, rat liver microsomes; format: in vitro ADME
From the text: as §1

[4] = HEK293, 24 h, Aβ40 in conditioned medium after 24 h incubation

Sequence of BACE1 (P56817 46-501, species assumed): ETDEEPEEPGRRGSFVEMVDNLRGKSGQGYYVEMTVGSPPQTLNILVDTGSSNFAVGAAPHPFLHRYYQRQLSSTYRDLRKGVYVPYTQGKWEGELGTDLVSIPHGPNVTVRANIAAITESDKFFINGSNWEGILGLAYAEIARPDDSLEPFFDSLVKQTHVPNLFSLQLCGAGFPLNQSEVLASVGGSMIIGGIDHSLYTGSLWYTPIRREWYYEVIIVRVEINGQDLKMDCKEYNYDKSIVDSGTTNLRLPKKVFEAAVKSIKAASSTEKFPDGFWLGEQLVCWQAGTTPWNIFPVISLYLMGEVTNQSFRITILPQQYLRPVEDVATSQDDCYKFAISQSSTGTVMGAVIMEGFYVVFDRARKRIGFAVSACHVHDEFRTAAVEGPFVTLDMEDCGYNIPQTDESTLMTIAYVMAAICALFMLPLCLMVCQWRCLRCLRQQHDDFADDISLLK

SMILES | IC50 (BACE1) | IC50 [1, 4] | IC50 (BACE1; read-out: BACE 1 FRET assay) | IC50 ([1]; HEK293) | IC50 at 10 min (CYP3A4 (CYP3A)) | HLM [2] | RLM [3] | inhibition in vivo at 30 mg/kg (Abeta peptide) | reduction of Abeta peptide in the brain of the rat (Abeta peptide; brain)
C=CC[C@H](NC(C)=O)[C@H](O)CN[C@H]1CC2(CCC2)Oc2c1cc(CC(C)(C)C)nc2NC [Example 44, N-((1S)-1-((1R)-2-(((4′S)-6′-(2,2-dimethylpropyl)-8′-(methylamino)-3′,4′-dihydrospiro[cyclobutane-1,2′-pyrano[2,3-c]pyridin]-4′-yl)amino)-1-hydroxyethyl)-3-buten-1-yl)acetamide] | 65 nM | 20 nM | – | – | – | – | – | ≥ 5% | –
C=CC[C@H](NC(=O)COC)[C@H](O)CN[C@H]1CC2(CCC2)Oc2c1cc(CC(C)(C)C)nc2NC [Example 47, N-((1S)-1-((1R)-2-(((4′S)-6′-(2,2-dimethylpropyl)-8′-(methylamino)-3′,4′-dihydrospiro[cyclobutane-1,2′-pyrano[2,3-c]pyridin]-4′-yl)amino)-1-hydroxyethyl)-3-buten-1-yl)-2-(methyloxy)acetamide] | 164 nM | 38 nM | – | – | – | – | – | – | ~25%
C=CC[C@H](NC(=O)CF)[C@H](O)CN[C@H]1CC2(CCC2)Oc2ncc(CC(C)(C)C)cc21 [Example 90, N-((1S)-1-((1R)-2-(((4′S)-6′-(2,2-dimethylpropyl)-3′,4′-dihydrospiro[cyclobutane-1,2′-pyrano[2,3-b]pyridin]-4′-yl)amino)-1-hydroxyethyl)-3-buten-1-yl)-2-fluoroacetamide] | 68 nM | – | – | – | – | – | – | ≥ 5% | –
C=CC[C@H](NC(C)=O)[C@H](O)CN[C@H]1CC2(CCC2)Oc2c1cc(CC(C)(C)C)nc2Nc1nccs1 [compound 235] | – | – | 31 nM | 121 nM | 2700 nM | 244 µL/min/mg | 100 µL/min/mg | – | –
C=CC[C@H](NC(=O)COC)[C@H](O)CN[C@H]1CC2(CCC2)Oc2c1cc(CC(C)(C)C)nc2Nc1nccs1 [compound 236] | – | – | 54 nM | 366 nM | 1200 nM | 614 µL/min/mg | 119 µL/min/mg | – | –
C=CC[C@H](NC(=O)COC)[C@H](O)CN[C@H]1CC2(CCC2)Oc2c1cc(CC(C)(C)C)nc2-c1nccn1C [compound 237, N-((1S)-1-((1R)-2-(((4′S)-6′-(2,2-dimethylpropyl)-8′-(1-methyl-1H-imidazol-2-yl)-3′,4′-dihydrospiro[cyclobutane-1,2′-pyrano[2,3-c]pyridin]-4′-yl)amino)-1-hydroxyethyl)-3-buten-1-yl)-2-methoxyacetamide] | – | – | 1230 nM | 385 nM | 160 nM | 58 µL/min/mg | 64 µL/min/mg | – | –
C=CC[C@H](NC(=O)COC)[C@H](O)CN[C@H]1CC2(CCC2)Oc2c1cc(CC(C)(C)C)nc2-c1cncn1C [compound 238, N-((1S)-1-((1R)-2-(((4′S)-6′-(2,2-dimethylpropyl)-8′-(1-methyl-1H-imidazol-5-yl)-3′,4′-dihydrospiro[cyclobutane-1,2′-pyrano[2,3-c]pyridin]-4′-yl)amino)-1-hydroxyethyl)-3-buten-1-yl)-2-methoxyacetamide] | – | – | 946 nM | 149 nM | 160 nM | 58 µL/min/mg | 68 µL/min/mg | – | –
C=CC[C@H](NC(=O)COCC)[C@H](O)CN[C@H]1CC2(CCC2)Oc2ncc(CC(C)(C)C)cc21 [compound 244] | – | – | 2450 nM | 3170 nM | 1300 nM | 543 µL/min/mg | 176 µL/min/mg | – | –
C=CC[C@H](NC(=O)CCC(C)(C)C)[C@H](O)CN[C@H]1CC2(CCC2)Oc2ncc(CC(C)(C)C)cc21 [compound 245] | – | – | 9250 nM | 10000 nM | 300 nM | 829 µL/min/mg | 459 µL/min/mg | – | –
C=CC[C@H](NC(=O)[C@@H]1CN(Cc2nccs2)CCO1)[C@H](O)CN[C@H]1CC2(CCC2)Oc2ncc(CC(C)(C)C)cc21 [compound 246, (2S)-N-((1S)-1-((1R)-2-(((4′S)-6′-(2,2-dimethylpropyl)-3′,4′-dihydrospiro[cyclobutane-1,2′-pyrano[2,3-b]pyridin]-4′-yl)amino)-1-hydroxyethyl)-3-buten-1-yl)-4-(1,3-thiazol-2-ylmethyl)-2-morpholinecarboxamide] | – | – | 128 nM | 116 nM | 700 nM | 736 µL/min/mg | 335 µL/min/mg | – | –

Further lines, with some results ahead:

IC50 (BACE1) | IC50 [1, 4] | IC50 (BACE1; read-out: BACE 1 FRET assay) | IC50 ([1]; HEK293) | IC50 at 10 min (CYP3A4 (CYP3A)) | HLM [2] | RLM [3] | SMILES | inhibition in vivo at 30 mg/kg (Abeta peptide) | reduction of Abeta peptide in the brain of the rat (Abeta peptide; brain)
68 nM | – | – | – | – | – | – | C=CC[C@H](NC(=O)CCOC)[C@H](O)CN[C@H]1CC2(CCC2)Oc2ncc(CC(C)(C)C)cc21 [Example 91, N-((1S)-1-((1R)-2-(((4′S)-6′-(2,2-dimethylpropyl)-3′,4′-dihydrospiro[cyclobutane-1,2′-pyrano[2,3-b]pyridin]-4′-yl)amino)-1-hydroxyethyl)-3-buten-1-yl)-3-(methyloxy)propanamide] | ≥ 5% | –
– | – | 78 nM | 369 nM | 1000 nM | 284 µL/min/mg | 232 µL/min/mg | C=CC[C@H](NC(=O)COC)[C@H](O)CN[C@H]1CC2(CCC2)Oc2c(-c3ccc4c(c3)OCO4)cc(CC(C)(C)C)cc21 [compound 231, N-((1S)-1-((1R)-2-(((4S)-8-(1,3-benzodioxol-5-yl)-6-(2,2-dimethylpropyl)-3,4-dihydrospiro[chromene-2,1′-cyclobutan]-4-yl)amino)-1-hydroxyethyl)-3-buten-1-yl)-2-methoxyacetamide] | – | –
– | – | 127 nM | 21 nM | 700 nM | 551 µL/min/mg | 174 µL/min/mg | C=CC[C@H](NC(=O)COC)[C@H](O)CN[C@H]1CC2(CCC2)Oc2c1cc(CC(C)(C)C)nc2Nc1ccncc1 [compound 232] | – | –
– | – | 16 nM | 388 nM | 1300 nM | 151 µL/min/mg | 197 µL/min/mg | C=CC[C@H](NC(=O)COC)[C@H](O)CN[C@H]1CC2(CCC2)Oc2c1cc(CC(C)(C)C)nc2Nc1ccc2c(c1)OCO2 [compound 233, N-((1S)-1-((1R)-2-(((4′S)-8′-(1,3-benzodioxol-5-ylamino)-6′-(2,2-dimethylpropyl)-3′,4′-dihydrospiro[cyclobutane-1,2′-pyrano[2,3-c]pyridin]-4′-yl)amino)-1-hydroxyethyl)-3-buten-1-yl)-2-methoxyacetamide] | – | –
– | – | 2410 nM | 5630 nM | 4100 nM | 299 µL/min/mg | 173 µL/min/mg | C=CC[C@H](NC(=O)COC)[C@H](O)CN[C@H]1CC2(CCC2)Oc2ncc(C(F)(F)C(C)(C)C)cc21 [compound 234] | – | –
– | – | 268 nM | 345 nM | 500 nM | 551 µL/min/mg | 152 µL/min/mg | C=CC[C@H](NC(=O)COC)[C@H](O)CN[C@H]1CC2(CCC2)Oc2c1cc(CC(C)(C)C)nc2Nc1cccnc1 [compound 240] | – | –
– | – | 2720 nM | 93 nM | 3700 nM | 84 µL/min/mg | 45 µL/min/mg | CCOC[C@H](NC(C)=O)[C@@H](O)CN[C@H]1CC2(CCC2)Oc2ncc(CC(C)(C)C)cc21 [compound 241] | – | –
– | – | 2160 nM | 982 nM | 300 nM | 601 µL/min/mg | 173 µL/min/mg | C=CC[C@H](NC(=O)C1COC(c2cccnc2)O1)[C@H](O)CN[C@H]1CC2(CCC2)Oc2ncc(CC(C)(C)C)cc21 (stereo partly drawn) [compound 243, N-((1S)-1-((1R)-2-(((4′S)-6′-(2,2-dimethylpropyl)-3′,4′-dihydrospiro[cyclobutane-1,2′-pyrano[2,3-b]pyridin]-4′-yl)amino)-1-hydroxyethyl)-3-buten-1-yl)-2-(3-pyridinyl)-1,3-dioxolane-4-carboxamide] | – | –
